According to US20210308101A1, “METHODS OF TREATING FIBROMYALGIA” (Aptinyx Inc., priority 2019, published 2021):

Experiments:
[1] = tested on: subjects with fibromyalgia; experiment: PROMIS Sleep Disturbance short form; assay type: in vivo, human; conditions: not statistically significant
Excerpt: As used herein, the “PROMIS Sleep Disturbance” short form is Patient Reported Outcomes Measurement Information System Sleep Disturbance—Short Form. The PROMIS Sleep Disturbance short form version 1.0 8b is an 8-item instrument that assesses sleep disturbance in subjects 18 years and older. All 8 questions are based on a 5-point numerical rating scale/Likert scale ranging from 1 to 5 with different categorical responses. Lower scores represent a better quality of life. The total score was calculated by taking the sum of all 8 questions and ranged from 8 to 40. If at least 4 questions were answered, the total score was imputed if missing responses were present. The total score was multiplied by 8/(number of questions answered) and rounded off to the nearest whole number. Otherwise, the total score was set to missing.
The PROMIS Sleep Disturbance short form assessment was collected and analyzed at visits Screening, Day 1, Week 2, Week 4, Week 6, and Follow-up (Week 7). The observed total score, changes from baseline, and changes from treatment periods were summarized using descriptive statistics. Additionally, the treatment group comparisons were analyzed using the paired t-test and nonparametric Wilcoxon signed-rank test. All PROMIS Sleep Disturbance short form data collected and the calculated total score at each visit were presented in a subject listing.

[2] = tested on: subjects with fibromyalgia; experiment: Revised Fibromyalgia Impact Questionnaire (FIQR); assay type: in vivo, human
Excerpt: As used herein, “FIQR” is Revised Fibromyalgia Impact Questionnaire. The FIQR is an updated version of the Fibromyalgia Impact Questionnaire which is an assessment of the physical functioning, work status, depression, anxiety, morning tiredness, pain, stiffness, fatigue and wellbeing in fibromyalgia subjects measured over the period of 1 week. The FIQR differs from the FIQ in that it includes questions on memory, tenderness, balance, and environmental sensitivity as well as modified function questions. All 21 FIQR questions are based on an 11-point numerical rating scale/Likert scale ranging from 0 to 10. Lower scores represent a better quality of life. The FIQR is made of the 3 following domains: • Function Domain Score • 9 Questions with Scores Ranging from 0 (No Difficulty) to 10 (Very Difficult) • Sum of those 9 Questions make up the Function Domain Score Ranging from 0 to 90 • Missing Data Imputation Factor: If at least 5 questions were answered, the Function Domain Score was multiplied by 9/(number of questions answered) and rounded off to the nearest whole number. Otherwise, the score was set to missing. • Overall Impact Domain Score • 2 Questions with Scores Ranging from 0 (Never) to 10 (Always) • Sum of those 2 Questions make up the Overall Impact Domain Score Ranging from 0 to 20 • Missing Data Imputation Factor: If 1 question was missing, the Overall Impact Domain Score was multiplied by 2. Otherwise, the score was set to missing. • Symptoms Domain Score • 10 Questions with Scores Ranging from 0 to 10 with Different Categorical Reponses Sum of those 10 Questions make up the Symptoms Domain Score Ranging from 0 to 100 Missing Data Imputation Factor: If at least 5 questions were answered, the Function Domain Score was multiplied by 10/(number of questions answered) and rounded off to the nearest whole number. Otherwise, the score was set to missing.
If all 3 domain scores could be calculated, the Total FIQR Score ranged from 0 to 100 and was calculated based on the normalization domain scores: (Function Domain Score/3)+Overall Impact Domain Score+(Symptoms Domain Score/2). Otherwise, the Total FIQR Score was set to missing. The Function and Symptoms domain scores collected on the CRF applied the normalization factors stated above (Function Domain Score/3 and Symptoms Domain Score/2) in order to calculate the Total FIQR Score on the CRF. As a result, the Function and Symptoms domain scores were derived by the definition stated above in the SAP as opposed to using the collected values on the CRF. The FIQR assessment was collected and analyzed at visits Screening, Day 1, Week 2, Week 4, Week 6, and Follow-up (Week 7). The observed total and domain scores, changes from baseline, and changes from treatment periods were summarized using descriptive statistics. Additionally, the treatment group comparisons were analyzed using the paired ttest and nonparametric Wilcoxon signed-rank test. All FIQR data collected and the calculated total and domain scores at each visit were presented in a subject listing.

NMDAR = NMDAR modulation (description); conditions: low concentrations of endogenous agonist (glycine or D-serine), in the presence of glutamate
[3] = Week 2 (placebo) to Week 4 (NYX-2925 20 mg)
[4] = Week 2 (placebo) to Week 6 (NYX-2925 200 mg)

## CC(C)C(=O)N1CCC[C@]12CN([C@H](C(N)=O)[C@@H](C)O)C2=O [NYX-2925, (2S, 3R)-3-hydroxy-2-((R)-5-isobutyryl-1-oxo-2,5-diazaspiro[3.4]octan-2-yl)butanamide]
[1]; [3]
  PROMIS Sleep Disturbance short form score, mean change: −0.9
[1]; [4]
  PROMIS Sleep Disturbance short form score, mean change: −1.6
[2]; NYX-2925 20 mg
  total FIQR score, change from baseline: reductions from baseline
[2]; [3]
  FIQR Symptoms Domain score, mean change: −2.1
  FIQR Total score, mean change: −0.5
[2]; [4]
  FIQR Function Domain score, mean change: −3.7
  FIQR Overall Impact Domain score, mean change: −2.0
[2]; Week 2 (placebo) to Week 6 (NYX-2925 200 mg), p=0.0135
  FIQR Total score, mean change: −6.3
[2]; Week 2 (placebo) to Week 6 (NYX-2925 200 mg), p=0.0207
  FIQR Symptoms Domain score, mean change: −6.2
[2]; week six, after four weeks of NYX-2925, scale 0 to 100, n=21
  Total FIQR score, reduction from baseline: 9.6 point
NMDAR
  activity at the NMDAR: partially activates the NMDAR
